Measurements taken from US20250171438A1 (Agios Pharmaceuticals, Inc., priority 2022, published 2025).

The compounds below were run against T1, human PAH with the R408W mutation (Homo sapiens, UniProt P00439, R408W) (assay: Cell Based Phenylalanine Flux Assay). Settings: A375 cells expressing human R408W PAH; 24 hrs compound incubation; 13C-Tyrosine by LC-MS; average where tested multiple times; read-out: AC50.
T1 construct: expressed in transfected cells
T1 sequence (P00439 1-452 R408W): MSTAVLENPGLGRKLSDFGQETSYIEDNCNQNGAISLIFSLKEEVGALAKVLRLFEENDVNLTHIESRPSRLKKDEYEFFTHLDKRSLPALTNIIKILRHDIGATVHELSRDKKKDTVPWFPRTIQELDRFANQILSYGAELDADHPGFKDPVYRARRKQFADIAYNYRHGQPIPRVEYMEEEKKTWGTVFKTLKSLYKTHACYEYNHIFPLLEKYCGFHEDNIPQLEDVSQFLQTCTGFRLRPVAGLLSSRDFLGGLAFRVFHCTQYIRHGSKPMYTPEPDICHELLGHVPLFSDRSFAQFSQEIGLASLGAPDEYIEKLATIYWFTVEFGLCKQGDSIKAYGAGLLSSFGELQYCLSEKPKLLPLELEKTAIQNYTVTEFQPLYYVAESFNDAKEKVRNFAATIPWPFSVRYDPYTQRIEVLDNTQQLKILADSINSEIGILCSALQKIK

Row | Compound | AC50
1 | O=C(c1ocnc1C1CC1)N1CCc2[nH]cnc2[C@@H]1c1nc2ccccc2s1 [Example 1328, (R)-(4-(benzo[d]thiazol-2-yl)-6,7-dihydro-1H-imidazo[4,5-c]pyridin-5(4H)-yl)(4-cyclopropyloxazol-5-yl)methanone] | 1000 to 5000 nM
2 | CC(C)(O)c1nc(CF)c(C(=O)N2CCc3[nH]cnc3[C@H]2c2nc3c(F)cccc3s2)o1 [Example 2065, (S)-(4-(4-fluorobenzo[d]thiazol-2-yl)-6,7-dihydro-1H-imidazo[4,5-c]pyridin-5(4H)-yl)(4-(fluoromethyl)-2-(2-hydroxypropan-2-yl)oxazol-5-yl)methanone] | < 500 nM
3 | O=C(c1cnc(-c2cnn(CC(F)(F)F)c2)o1)N1CCc2[nH]cnc2[C@H]1c1nc2ccccc2s1 [Example 1391] | < 500 nM
4 | CC(F)c1nc(C(F)F)c(C(=O)N2CCc3[nH]cnc3[C@H]2c2nc3c(F)cccc3s2)o1 (single isomer, unassigned) [Example 2075] | < 500 nM
5 | CC(C)(O)c1ncc(C(=O)N2CCc3[nH]cnc3[C@@H]2c2nc3c(F)cccc3s2)o1 [Example 1484, (R)-(4-(4-fluorobenzo[d]thiazol-2-yl)-6,7-dihydro-1H-imidazo[4,5-c]pyridin-5(4H)-yl)(2-(2-hydroxypropan-2-yl)oxazol-5-yl)methanone] | 1000 to 5000 nM
6 | O=C(c1cnn2ccccc12)N1CCc2[nH]cnc2[C@@H]1c1nc2ccc(Cl)cc2[nH]1 [Example 937, (R)-(4-(6-chloro-1H-benzo[d]imidazol-2-yl)-6,7-dihydro-1H-imidazo[4,5-c]pyridin-5(4H)-yl)(pyrazolo[1,5-a]pyridin-3-yl)methanone] | 1000 to 5000 nM
7 | CC(C)(CO)c1nc(C(F)F)c(C(=O)N2CCc3[nH]cnc3[C@@H]2c2nc3c(F)cccc3s2)o1 [Example 2072, (R)-(4-(difluoromethyl)-2-(1-hydroxy-2-methylpropan-2-yl)oxazol-5-yl)(4-(4-fluorobenzo[d]thiazol-2-yl)-6,7-dihydro-1H-imidazo[4,5-c]pyridin-5(4H)-yl)methanone] | 500 to 1000 nM
8 | O=C(CCc1nccs1)N1CCc2[nH]cnc2[C@H]1c1nc2ccc(Br)cc2[nH]1 [Example 908, (S)-1-(4-(6-bromo-1H-benzo[d]imidazol-2-yl)-6,7-dihydro-1H-imidazo[4,5-c]pyridin-5(4H)-yl)-3-(thiazol-2-yl)propan-1-one] | < 500 nM
9 | O=C(c1ocnc1-c1ccccn1)N1CCc2[nH]cnc2[C@H]1c1nc2ccccc2s1 [Example 1450] | 500 to 1000 nM
10 | O=C(c1oc(-c2ccccn2)nc1C1CC1)N1CCc2[nH]cnc2[C@@H]1c1nc2cccc(F)c2s1 [Example 1557, (R)-(4-cyclopropyl-2-(pyridin-2-yl)oxazol-5-yl)(4-(7-fluorobenzo[d]thiazol-2-yl)-6,7-dihydro-1H-imidazo[4,5-c]pyridin-5(4H)-yl)methanone] | 500 to 1000 nM
11 | CC1(c2nc(C(F)F)c(C(=O)N3CCc4[nH]cnc4[C@@H]3c3nc4ccccc4s3)o2)CC1 [Example 1852, (R)-(4-(benzo[d]thiazol-2-yl)-6,7-dihydro-1H-imidazo[4,5-c]pyridin-5(4H)-yl)(4-(difluoromethyl)-2-(1-methylcyclopropyl)oxazol-5-yl)methanone] | < 500 nM
12 | O=C(c1cncs1)N1CCc2[nH]cnc2[C@H]1c1nc2cccc(F)c2s1 [Example 1233, (S)-(4-(7-fluorobenzo[d]thiazol-2-yl)-6,7-dihydro-1H-imidazo[4,5-c]pyridin-5(4H)-yl)(thiazol-5-yl)methanone] | 500 to 1000 nM
13 | O=C(c1oc(CCN2CC(F)C2)nc1C(F)(F)F)N1CCc2[nH]cnc2[C@@H]1c1nc2ccccc2s1 [Example 1576, (R)-(4-(benzo[d]thiazol-2-yl)-6,7-dihydro-1H-imidazo[4,5-c]pyridin-5(4H)-yl)(2-(2-(3-fluoroazetidin-1-yl)ethyl)-4-(trifluoromethyl)oxazol-5-yl)methanone] | < 500 nM
14 | COc1ccn2ncc(C(=O)N3CCc4[nH]cnc4[C@@H]3c3nc4ccccc4s3)c2c1 [Example 1084, (R)-(4-(benzo[d]thiazol-2-yl)-6,7-dihydro-1H-imidazo[4,5-c]pyridin-5(4H)-yl)(5-methoxypyrazolo[1,5-a]pyridin-3-yl)methanone] | 1000 to 5000 nM
15 | Cc1c(-c2nnc(C(=O)N3CCc4[nH]cnc4[C@@H]3c3nc4ccccc4s3)o2)cnn1C [Example 1846, (R)-(4-(benzo[d]thiazol-2-yl)-6,7-dihydro-1H-imidazo[4,5-c]pyridin-5(4H)-yl)(5-(1,5-dimethyl-1H-pyrazol-4-yl)-1,3,4-oxadiazol-2-yl)methanone] | 1000 to 5000 nM
16 | CC(C)(O)c1ncc(C(=O)N2CCc3[nH]cnc3[C@@H]2c2nc3ccccc3s2)s1 [Example 1436, (R)-(4-(benzo[d]thiazol-2-yl)-6,7-dihydro-1H-imidazo[4,5-c]pyridin-5(4H)-yl)(2-(2-hydroxypropan-2-yl)thiazol-5-yl)methanone] | 1000 to 5000 nM
17 | O=C(C1CN(c2ccc(F)cn2)C1)N1CCc2[nH]cnc2[C@@H]1c1nc2ccccc2s1 [Example 1838, (R)-(4-(benzo[d]thiazol-2-yl)-6,7-dihydro-1H-imidazo[4,5-c]pyridin-5(4H)-yl)(1-(5-fluoropyridin-2-yl)azetidin-3-yl)methanone] | > 5000 nM
18 | CC1(C)CCC(c2ncc(C(=O)N3CCc4[nH]cnc4[C@@H]3c3nc4ccccc4s3)s2)CC1 [Example 1354, (R)-(4-(benzo[d]thiazol-2-yl)-6,7-dihydro-1H-imidazo[4,5-c]pyridin-5(4H)-yl)(2-(4,4-dimethylcyclohexyl)thiazol-5-yl)methanone] | 1000 to 5000 nM
19 | O=C(c1nc(Cl)cs1)N1CCc2[nH]cnc2[C@@H]1c1nc2ccccc2s1 [Example 1058, (R)-(4-(benzo[d]thiazol-2-yl)-6,7-dihydro-1H-imidazo[4,5-c]pyridin-5(4H)-yl)(4-chlorothiazol-2-yl)methanone] | 1000 to 5000 nM
20 | Cc1nc(CN(C)C)oc1C(=O)N1CCc2[nH]cnc2[C@H]1c1nc2ccccc2s1 [Example 1693] | 500 to 1000 nM
21 | O=C(C1CC1(F)F)N1CCc2[nH]cnc2[C@@H]1c1nc2ccccc2s1 (single isomer, unassigned) [Example 1286] | 1000 to 5000 nM
22 | Cn1nccc1-c1nnc(C(=O)N2CCc3[nH]cnc3[C@H]2c2nc3ccccc3s2)o1 [Example 1945] | < 500 nM
23 | O=C(c1oc(C2(O)CC2)nc1C(F)(F)F)N1CCc2[nH]cnc2[C@H]1c1nc2c(F)cccc2s1 [Example 2185, (S)-(4-(4-fluorobenzo[d]thiazol-2-yl)-1,4,6,7-tetrahydro-5H-imidazo[4,5-c]pyridin-5-yl)(2-(1-hydroxycyclopropyl)-4-(trifluoromethyl)oxazol-5-yl)methanone] | < 500 nM
24 | O=C(N1CCc2[nH]cnc2[C@H]1c1nc2ccccc2s1)C(F)(F)C1(O)CCC1 [Example 1687] | < 500 nM
25 | CC(C)(C)c1ncc(C(=O)N2CCc3[nH]cnc3[C@@H]2c2nc3ccccc3s2)o1 [Example 1428, (R)-(4-(benzo[d]thiazol-2-yl)-6,7-dihydro-1H-imidazo[4,5-c]pyridin-5(4H)-yl)(2-(tert-butyl)oxazol-5-yl)methanone] | 500 to 1000 nM
26 | O=C(c1cn[nH]c1Cl)N1CCc2[nH]cnc2[C@@H]1c1nc2ccccc2s1 [Example 2035, (R)-(4-(benzo[d]thiazol-2-yl)-6,7-dihydro-1H-imidazo[4,5-c]pyridin-5(4H)-yl)(5-chloro-1H-pyrazol-4-yl)methanone] | 1000 to 5000 nM
27 | Cc1nnc(C(=O)N2CCc3[nH]cnc3[C@@H]2c2nc3c(F)cccc3s2)o1 [Example 1466, (R)-(4-(4-fluorobenzo[d]thiazol-2-yl)-6,7-dihydro-1H-imidazo[4,5-c]pyridin-5(4H)-yl)(5-methyl-1,3,4-oxadiazol-2-yl)methanone] | 1000 to 5000 nM

Same assay, conditions: A375 cells expressing human R408W PAH; 24 hrs with compound; 13C-Tyrosine by LC-MS; average where tested multiple times; read-out: AC50

Row | Compound | AC50
28 | Cc1nc(CCCN(C)C)oc1C(=O)N1CCc2[nH]cnc2C1c1nc2ccccc2s1 (stereo not shown) [listing 1 of 2 here] | > 5000 nM
29 | Cc1nc(CCCN(C)C)oc1C(=O)N1CCc2[nH]cnc2C1c1nc2ccccc2s1 (stereo not shown) [listing 2 of 2 here] | 1000 to 5000 nM
30 | O=C(CCc1cccs1)N1CCc2[nH]cnc2C1c1nc2ccccc2[nH]1 (stereo not shown) | > 5000 nM
31 | O=C(c1cncs1)N1CCc2[nH]cnc2C1c1nc2ccc(Cl)cc2[nH]1 (stereo not shown) | 1000 to 5000 nM
32 | Nc1nnc(CCC(=O)N2CCc3[nH]cnc3C2c2nc3ccccc3s2)s1 (stereo not shown) | > 5000 nM
33 | CC1CN(C(=O)c2cnn3cc(CN(C)C)ccc23)C(c2nc3ccccc3s2)c2nc[nH]c21 (stereo not shown) | 1000 to 5000 nM
34 | O=C(c1nc2ccccc2s1)N1CCc2[nH]cnc2C1c1nc2ccc(F)cc2[nH]1 (stereo not shown) | > 5000 nM
35 | O=C(c1ccno1)N1CCc2[nH]cnc2C1c1nc2ccc(F)cc2s1 (stereo not shown) | 1000 to 5000 nM
36 | CC1CN(C(=O)c2nnc(C(C)(C)O)o2)C(c2nc3ccccc3s2)c2nc[nH]c21 (stereo not shown) [listing 1 of 2 here] | 1000 to 5000 nM
37 | CC(C)(O)c1cc(C(=O)N2CCc3[nH]cnc3C2c2nc3c(F)cccc3s2)[nH]n1 (stereo not shown) | 1000 to 5000 nM
38 | O=C(c1nnc(CCN2CC(F)C2)o1)N1CCc2[nH]cnc2C1c1nc2ccccc2s1 (stereo not shown) | > 5000 nM
39 | CC1CN(C(=O)c2nnc(C(C)(C)O)o2)C(c2nc3ccccc3s2)c2nc[nH]c21 (stereo not shown) [listing 2 of 2 here] | 1000 to 5000 nM
40 | O=C(c1nccs1)N1CCc2[nH]cnc2C1c1nc2cccc(F)c2[nH]1 (stereo not shown) | 1000 to 5000 nM
41 | O=C(c1nccs1)N1CCc2[nH]cnc2[C@H]1c1nc2ccc(Cl)cc2s1 (single isomer, unassigned) | 1000 to 5000 nM
42 | Cn1ncc(C(=O)N2CCc3[nH]cnc3C2c2nc3c(F)cccc3s2)c1C(F)(F)F (stereo not shown) | 1000 to 5000 nM
43 | O=C(c1nc(Cl)cs1)N1CCc2[nH]cnc2C1c1nc2c(F)cccc2s1 (stereo not shown) | > 5000 nM
